“Also recorded” adds a separate entry of the source. Each block holds one compound with its values, some of them ahead of it.
Columns and labels:
[1] = tested on: CNS receptors and ion channels (44 off-target sites); test: PDSP broad screen of binding at off-target sites; conditions: binding screen at 10 μM / Ki follow-up
[2] = tested on: CACO-2 cell monolayer / P-glycoprotein; test: Bidirectional permeability in CACO-2 cell monolayer; conditions: CACO-2 monolayer; for P-glycoprotein substrate: bidirectional permeability
[3] = tested on: chronic constriction injury (CCI) of the sciatic nerve, mechano-allodynia; test: CCI model of neuropathic pain in mice, oral dosing, paw withdrawal threshold; format: in vivo, mouse; conditions: for in vivo duration of action: po, CCI model in mice
[4] = biological target: T1, mA3AR (Mus musculus, UniProt Q61618); format: cell-based
T1 sequence (Q61618 1-319): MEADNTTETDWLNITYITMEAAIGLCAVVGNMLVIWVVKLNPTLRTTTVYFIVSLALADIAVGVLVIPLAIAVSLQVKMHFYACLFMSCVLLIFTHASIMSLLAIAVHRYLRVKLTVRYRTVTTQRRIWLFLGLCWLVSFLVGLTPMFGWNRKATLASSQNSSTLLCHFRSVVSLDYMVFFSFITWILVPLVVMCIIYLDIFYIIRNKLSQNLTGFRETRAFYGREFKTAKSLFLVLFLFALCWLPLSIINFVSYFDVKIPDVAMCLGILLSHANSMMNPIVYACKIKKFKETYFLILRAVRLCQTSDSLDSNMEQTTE

[5] = Chemical stability in simulated gastric fluid; conditions: pH 1.6, 37 °C
[6] = Stability in mouse liver microsomes
[7] = Plasma protein binding
[8] = Plasma protein binding; remark: listed apart in the source
[9] = Chemical stability in simulated intestinal fluid; conditions: pH 6.5, 37 °C
[10] = Plasma protein binding; remark: listed apart in the source
[11] = Stability in human liver microsomes
[12] = biological target: T2, hA3AR (Homo sapiens, UniProt P0DMS8); test: Radioligand binding at hA3AR, CHO cell membranes, [125I]I-AB-MECA; conditions: read-out: hA3AR Ki, n = 3–4
T2 sequence (P0DMS8 1-318): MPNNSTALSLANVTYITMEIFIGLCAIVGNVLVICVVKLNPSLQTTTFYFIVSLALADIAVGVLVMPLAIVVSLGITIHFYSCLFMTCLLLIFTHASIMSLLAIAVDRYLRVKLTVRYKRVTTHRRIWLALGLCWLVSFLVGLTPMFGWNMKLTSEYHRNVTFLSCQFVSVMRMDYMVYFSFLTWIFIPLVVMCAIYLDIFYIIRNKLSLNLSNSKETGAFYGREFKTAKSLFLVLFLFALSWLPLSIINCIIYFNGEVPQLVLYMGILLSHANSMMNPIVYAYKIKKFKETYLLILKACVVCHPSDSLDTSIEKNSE

[13] = Stability in rat liver microsomes

Structure (SMILES): CNC(=O)[C@@]12C[C@@H]1[C@@H](n1cnc3c(NC)nc(C#Cc4ccc(F)c(F)c4)nc31)[C@H](O)[C@@H]2O [Compound 13, reference compound]
off-target interactions in PDSP screen [1]: inhibited binding by >30% at only a few sites

Structure (SMILES): CNC(=O)[C@@]12C[C@@H]1[C@@H](n1cnc3c(NC)nc(C#Cc4cnn(C)c4)nc31)[C@H](O)[C@@H]2O [Compound 26, (1S,2R,3S,4R,5S)-2,3-Dihydroxy-N-methyl-4-(2-((1-methyl-1H-pyrazol-4-yl)ethynyl)-6-(methylamino)-9H-purin-9-yl)bicyclo[3.1.0]hexane-1-carboxamide]
off-target interactions in PDSP screen [1]: relatively free of off-target receptor effects

Structure (SMILES): CNC(=O)[C@@]12C[C@@H]1[C@@H](n1cnc3c(NC)nc(C#C[c-]4cccc4)nc31)[C@H](O)[C@@H]2O.[Fe+2].c1cc[cH-]c1 [Compound 36, (1S,2R,3S,4R,5S)-4-(2-((Ferrocen-yl)ethynyl)-6-(methylamino)-9H-purin-9-yl)-2,3-dihydroxy-N-methylbicyclo[3.1.0]hexane-1-carboxamide]
stability in simulated fluids, gastric, t1/2 [5]: 46.5 min
stability in liver microsomes t1/2, mouse [6]: 1.98 min
agonist efficacy at the mA3AR ([4]; cyclic AMP assay, HEK293-mA3AR): full agonists
% unbound in plasma, human [7]: 7.00%
% unbound in plasma, rat [8]: 6.32%
stability in simulated fluids, intestinal, t1/2 [9]: 174 min
% unbound in plasma, mouse [10]: 4.85%
stability in liver microsomes t1/2, human [11]: 3.66 min
Ki [12]: 2.7 nM
stability in liver microsomes t1/2, rat [13]: 6.64 min
max effect Emax (% ± SEM), % of complete reversal at peak protection ([3]; 3 μmol/kg po on day 7 after CCI, mice, ipsilateral hind paw): 94.3 ± 5.7%
in vivo duration of action [3]: > 3 h

Further lines, with some results ahead:

P-glycoprotein substrate [2]: not to be substrates for P-glycoprotein
Structure (SMILES): CNC(=O)[C@@]12C[C@@H]1[C@@H](n1cnc3c(NC)nc(C#Cc4cnccn4)nc31)[C@H](O)[C@@H]2O [Compound 23, (1S,2R,3S,4R,5S)-2,3-Dihydroxy-N-methyl-4-(6-(methylamino)-2-(pyrazin-2-ylethynyl)-9H-purin-9-yl)bicyclo[3.1.0]hexane-1-carboxamide]
off-target interactions in PDSP screen [1]: inhibited binding by >30% at only a few sites

apical to basal permeability [2]: moderate
P-glycoprotein substrate [2]: not to be substrates for P-glycoprotein
Structure (SMILES): CNC(=O)[C@@]12C[C@@H]1[C@@H](n1cnc3c(NC)nc(C#Cc4ccco4)nc31)[C@H](O)[C@@H]2O [Compound 27, (1S,2R,3S,4R,5S)-4-(2-(Furan-2-ylethynyl)-6-(methylamino)-9H-purin-9-yl)-2,3-dihydroxy-N-methylbicyclo[3.1.0]hexane-1-carboxamide]
off-target interactions in PDSP screen [1]: relatively free of off-target receptor effects; also recorded: completely lacks off-target interactions at 10 μM
in vivo duration of action [3]: ~3 h

IC50 [4]: 60.1 nM
Structure (SMILES): CNC(=O)[C@@]12C[C@@H]1[C@@H](n1cnc3c(NC)nc(C#Cc4cccs4)nc31)[C@H](O)[C@@H]2O [Compound 32, (1S,2R,3S,4R,5S)-2,3-Dihydroxy-N-methyl-4-(6-(methylamino)-2-(thiophen-2-ylethynyl)-9H-purin-9-yl)bicyclo[3.1.0]hexane-1-carboxamide]
off-target interactions in PDSP screen [1]: inhibited binding by >30% at only a few sites

apical to basal permeability [2]: moderate
P-glycoprotein substrate [2]: not to be substrates for P-glycoprotein
Structure (SMILES): CNC(=O)[C@@]12C[C@@H]1[C@@H](n1cnc3c(NC)nc(C#Cc4ccc(Cl)s4)nc31)[C@H](O)[C@@H]2O [Compound 33, (1S,2R,3S,4R,5S)-4-(2-((5-Chlorothiophen-2-yl)ethynyl)-6-(methylamino)-9H-purin-9-yl)-2,3-dihydroxy-N-methylbicyclo[3.1.0]hexane-1-carboxamide]
off-target interactions in PDSP screen [1]: largely free of off-target receptor effects, except at TSPO and σ1 and σ2 receptors
reversal of neuropathic pain at intermediate dose ([3]; […] po, Figure 1 dose–response): approximately 80%
in vivo duration of action [3]: > 3 h

Reference: article PMC4266358 (Journal of Medicinal Chemistry, 2014)
